Reference: patent US20030092757A1, “Favorable modulation of health-related quality of life and health-related quality-adjusted time-to-progression of disease in patients with prostate cancer” (priority 2001, published 2003)

System: patients having hormone refractory prostate cancer (HRPCa)
Assay: Health-related quality-adjusted time-to-progression (QATTP) of disease, Kaplan-Meier product limit analysis, randomized placebo-controlled study
Assay type: in vivo, human
Procedure: The health-related QATTP of disease model for this invention expresses progression-free time as an equally preferable amount of time spent in full health. This is achieved by using patient-reported health-related QoL, as measured for the duration of observation or progression-free interval, to weight progression-free time. […] Patients received treatment with 10 mg (N=89) or 2.5 mg (N=95) of atrasentan or placebo (N=104) until experiencing a clinical event indicative of disease progression such as palliative opiate treatment of new bone or visceral pain, palliative radiation treatment of new bone pain, or new tumor growth symptoms requiring intervention or treatment with chemotherapy. Patient-reported health-related QoL data were collected with the EORTC QLQ-30 and the FACT-G and FACT-P, both of which were administered at baseline, at six week intervals and at each patient's final visit. The results from the 10 mg and 2.5 mg treatment groups are reported relative to the placebo group. A patient's transformed domain score and total score from both the EORTC QLQ-30 and FACT were used to weight the time-to-progression outcome data. Transformed domain scores ranged between 0 and 1, so the reported health-related QATTP of disease outcome was never larger than the actual time-to-progression. Each patient's health-related QATTP of disease was computed as the sum of the health-related QoL weights multiplied by the duration for which that patient experienced that health-related QoL. If a patient experienced a clinical event between two health-related QoL assessments, the set of health-related QoL domain scores immediately prior to the event were carried forward to the time of the clinical event. The mean and median health-related QATTP of disease outcomes were then estimated using Kaplan-Meier product limit methodology (Journal of the American Statistical Association, vol. 53, 1958, pp 457-481). The area under a Kaplan-Meier survival curve conveys an estimated mean health-related QATTP of disease. This analysis was applied to both intent-to-treat and per protocol population data. All health-related QATTP of disease comparisons between atrasentan and placebo treatment groups were based on a log-rank test with statistical significance at an α of 0.05. Results of the Kaplan-Meier product limit survival method analysis are reported in TABLE 2 (Intent to Treat) and TABLE 3 (Per Protocol Population). Mean and median health-related QATTP of disease are shown by treatment group. Log-rank tests comparing the differences between treatment groups are also reported.

[1] = EORTC Appetite Loss, 2.5 mg, intent to treat
[2] = EORTC Appetite Loss, 2.5 mg, per protocol
[3] = EORTC Appetite Loss, 10 mg, intent to treat
[4] = EORTC Appetite Loss, 10 mg, per protocol
[5] = EORTC Cognitive Functioning, 2.5 mg, intent to treat
[6] = EORTC Cognitive Functioning, 2.5 mg, per protocol
[7] = EORTC Cognitive Functioning, 10 mg, intent to treat
[8] = EORTC Cognitive Functioning, 10 mg, per protocol
[9] = EORTC Constipation, 2.5 mg, intent to treat
[10] = EORTC Constipation, 2.5 mg, per protocol
[11] = EORTC Constipation, 10 mg, intent to treat
[12] = EORTC Constipation, 10 mg, per protocol
[13] = EORTC Diarrhea, 2.5 mg, intent to treat
[14] = EORTC Diarrhea, 2.5 mg, per protocol
[15] = EORTC Diarrhea, 10 mg, intent to treat
[16] = EORTC Diarrhea, 10 mg, per protocol
[17] = EORTC Dyspnea, 2.5 mg, intent to treat
[18] = EORTC Dyspnea, 2.5 mg, per protocol
[19] = EORTC Dyspnea, 10 mg, intent to treat
[20] = EORTC Dyspnea, 10 mg, per protocol
[21] = EORTC Emotional Functioning, 2.5 mg, intent to treat
[22] = EORTC Emotional Functioning, 2.5 mg, per protocol
[23] = EORTC Emotional Functioning, 10 mg, intent to treat
[24] = EORTC Emotional Functioning, 10 mg, per protocol
[25] = EORTC Fatigue, 2.5 mg, intent to treat
[26] = EORTC Fatigue, 2.5 mg, per protocol
[27] = EORTC Fatigue, 10 mg, intent to treat
[28] = EORTC Fatigue, 10 mg, per protocol
[29] = EORTC Global Score, 2.5 mg, intent to treat
[30] = EORTC Global Score, 2.5 mg, per protocol
[31] = EORTC Global Score, 10 mg, intent to treat
[32] = EORTC Global Score, 10 mg, per protocol
[33] = EORTC Nausea & Vomiting, 2.5 mg, intent to treat
[34] = EORTC Nausea & Vomiting, 2.5 mg, per protocol
[35] = EORTC Nausea & Vomiting, 10 mg, intent to treat
[36] = EORTC Nausea & Vomiting, 10 mg, per protocol
[37] = EORTC Pain, 2.5 mg, intent to treat
[38] = EORTC Pain, 2.5 mg, per protocol
[39] = EORTC Pain, 10 mg, intent to treat
[40] = EORTC Pain, 10 mg, per protocol
[41] = EORTC Physical Functioning, 2.5 mg, intent to treat

`CCCCN(CCCC)C(=O)CN1C[C@H](c2ccc3c(c2)OCO3)[C@@H](C(=O)O)[C@@H]1c1ccc(OC)cc1` [atrasentan, (2R,3R,4S)-2-(4-methoxyphenyl)-4-(1,3-benzodioxol-5-yl)-1-(((N,N-dibutylamino)carbonyl)methyl)pyrrolidine-3-carboxylic acid] was tested, and the “log rank tests of mean health-related QATTP of disease” value (2.5 mg, all health-related QoL domains except dyspnea and functional well-being) was “statistically significant”, the “mean health-related QATTP of disease” value (2.5 mg, data in TABLE 2 (so in the source)) was “longer” and the “difference in health-related QATTP between the atrasentan treatment groups” value (10 mg vs 2.5 mg, any health-related QoL domain) was “no statistical differences”. The “mean health-related QATTP's of disease” value (10 mg, data in TABLE 2 (so in the source), all health-related QoL domains except dyspnea, global score, emotional well-being, social well-being, p<0.05) was “significantly longer”, the “mean health-related QATTP of disease, trend” value (10 mg, dyspnea, global score, emotional well-being, social well-being domains, p<0.10) was “trend favored” and the “QATTP of Disease Mean” value [1] was 186 days. The “QATTP of Disease Median” value [1] was 151 days, the “QATTP of Disease Mean” value [2] was 196 days and the “QATTP of Disease Median” value [2] was 162 days. For the same molecule, the “QATTP of Disease Mean” value [3] was 175 days, the “QATTP of Disease Median” value [3] was 146 days and the “QATTP of Disease Mean” value [4] was 179 days. For the same molecule, the “QATTP of Disease Median” value [4] was 146 days, the “QATTP of Disease Mean” value [5] was 180 days and the “QATTP of Disease Median” value [5] was 151 days. For the same molecule, the “QATTP of Disease Mean” value [6] was 190 days, the “QATTP of Disease Median” value [6] was 156 days and the “QATTP of Disease Mean” value [7] was 163 days. The “QATTP of Disease Median” value [7] was 138 days, the “QATTP of Disease Mean” value [8] was 159 days and the “QATTP of Disease Median” value [8] was 144 days. For the same molecule, the “QATTP of Disease Mean” value [9] was 180 days, the “QATTP of Disease Median” value [9] was 142 days and the “QATTP of Disease Mean” value [10] was 190 days. For the same molecule, the “QATTP of Disease Median” value [10] was 151 days, the “QATTP of Disease Mean” value [11] was 189 days and the “QATTP of Disease Median” value [11] was 132 days. For the same molecule, the “QATTP of Disease Mean” value [12] was 198 days, the “QATTP of Disease Median” value [12] was 141 days and the “QATTP of Disease Mean” value [13] was 198 days. For the same molecule, the “QATTP of Disease Median” value [13] was 178 days, the “QATTP of Disease Mean” value [14] was 209 days and the “QATTP of Disease Median” value [14] was 184 days. For the same molecule, the “QATTP of Disease Mean” value [15] was 185 days, the “QATTP of Disease Median” value [15] was 176 days and the “QATTP of Disease Mean” value [16] was 188 days. The “QATTP of Disease Median” value [16] was 184 days, the “QATTP of Disease Mean” value [17] was 173 days and the “QATTP of Disease Median” value [17] was 141 days. The “QATTP of Disease Mean” value [18] was 180 days, the “QATTP of Disease Median” value [18] was 142 days and the “QATTP of Disease Mean” value [19] was 177 days. The “QATTP of Disease Median” value [19] was 123 days, the “QATTP of Disease Mean” value [20] was 182 days and the “QATTP of Disease Median” value [20] was 132 days. The “QATTP of Disease Mean” value [21] was 177 days, the “QATTP of Disease Median” value [21] was 133 days and the “QATTP of Disease Mean” value [22] was 186 days. The “QATTP of Disease Median” value [22] was 143 days, the “QATTP of Disease Mean” value [23] was 167 days and the “QATTP of Disease Median” value [23] was 125 days. For the same molecule, the “QATTP of Disease Mean” value [24] was 169 days, the “QATTP of Disease Median” value [24] was 134 days and the “QATTP of Disease Mean” value [25] was 165 days. For the same molecule, the “QATTP of Disease Median” value [25] was 109 days, the “QATTP of Disease Mean” value [26] was 174 days and the “QATTP of Disease Median” value [26] was 127 days. The “QATTP of Disease Mean” value [27] was 153 days, the “QATTP of Disease Median” value [27] was 104 days and the “QATTP of Disease Mean” value [28] was 158 days. The “QATTP of Disease Median” value [28] was 111 days, the “QATTP of Disease Mean” value [29] was 159 days and the “QATTP of Disease Median” value [29] was 104 days. The “QATTP of Disease Mean” value [30] was 167 days, the “QATTP of Disease Median” value [30] was 124 days and the “QATTP of Disease Mean” value [31] was 141 days. For the same molecule, the “QATTP of Disease Median” value [31] was 103 days, the “QATTP of Disease Mean” value [32] was 145 days and the “QATTP of Disease Median” value [32] was 106 days. For the same molecule, the “QATTP of Disease Mean” value [33] was 195 days, the “QATTP of Disease Median” value [33] was 162 days and the “QATTP of Disease Mean” value [34] was 206 days. For the same molecule, the “QATTP of Disease Median” value [34] was 178 days, the “QATTP of Disease Mean” value [35] was 201 days and the “QATTP of Disease Median” value [35] was 156 days. The “QATTP of Disease Mean” value [36] was 207 days, the “QATTP of Disease Median” value [36] was 168 days and the “QATTP of Disease Mean” value [37] was 179 days. The “QATTP of Disease Median” value [37] was 133 days, the “QATTP of Disease Mean” value [38] was 188 days and the “QATTP of Disease Median” value [38] was 142 days. For the same molecule, the “QATTP of Disease Mean” value [39] was 172 days, the “QATTP of Disease Median” value [39] was 127 days and the “QATTP of Disease Mean” value [40] was 178 days. The “QATTP of Disease Median” value [40] was 137 days, the “QATTP of Disease Mean” value [41] was 172 days and the “QATTP of Disease Median” value [41] was 118 days. For the same molecule, the “QATTP of Disease Mean” value (EORTC Physical Functioning, 2.5 mg, per protocol) was 181 days.
